Measured values taken from patent publication EP4050002A1, “ANTI-PROLIFERATIVE AGENTS” (First Health Pharmaceuticals B.V., priority 2021, dated 2022).

Legend:
A549 = experiment: Cytotoxicity, cell count method; assay type: cell-based; conditions: Homo sapiens, A549, 72 hours of incubation
Procedure: (§1) The anti-tumor activity of the compounds of the present invention was evaluated as the effect on the proliferation and survival of tumor cells by counting the number of living cells in presence or absence of the compounds ("cell count method"), and as the effect on the viability and metabolic activity of the cells, by using particular substrates that are converted by cellular enzymes into coloured or luminescent products, proportionally with metabolic activity and state of the cell, such as the MTS tetrazolium compound ("MTS method") or luciferin ("ATP-based method") respectively.
(§2) Cells were seeded at 3 to 5 x 10^4 cells/well density depending on cell lines and maintained at 37°C in 5% CO2. After 24 hours cells were treated with ascending concentrations of the investigational compounds and the reference (5-fluoro-Uracyl) in a range from 0 to 100 µM. Compounds were dissolved in DMSO which final concentration in each well was 0.5% v:v. After 72 h of incubation with compounds, the cells were detached with trypsin and re-suspended in 1 ml of complete medium; the cell number was evaluated using a Z2 Coulter Counter ("cell count method") (Attallah and Johnson, A simple highly sensitive methods for the determination of cell viability using an electronic particle analyzer, Coulter counter J. Immunol. Methods. 1981, 41, 155; Leonardi et al., Activated kinase screening identifies the IKBKE oncogene as a positive regulator of autophagy. Autophagy, 2019, 15, 312). Alternatively, after the 72 hours of incubation with compounds, the MTS solution (CellTiter 96® AQueous One Solution Cell Proliferation Assay) is added to each well and absorbance at 490 nm wavelength is read after 2 hours of incubation ("MTS method"). Results in Tables 8-13, 17, 18 were obtained with the cell count method. Results in Tables 14-15 were obtained with the MTS method. Results in Table 16 were obtained with ATP-based method.

A549 Red-FLuc = experiment: Cytotoxicity, cell count method; assay type: cell-based; conditions: Homo sapiens, 72 hours of incubation
Procedure: as §1, §2

CALU1 = experiment: Cytotoxicity, cell count method; assay type: cell-based; conditions: Homo sapiens, Calu-1, CALU1, 72 hours of incubation
Procedure: as §1, §2

U87 = experiment: Cytotoxicity, cell count method; assay type: cell-based; conditions: Homo sapiens, U-87 MG, U87, 72 hours of incubation
Procedure: as §1, §2

A375 cell line = experiment: Cytotoxicity, cell count method; assay type: cell-based; conditions: Homo sapiens, A-375, A375, 72 hours of incubation
Procedure: as §1, §2

SK-LU1 = experiment: Cytotoxicity, cell count method; assay type: cell-based; conditions: Homo sapiens, SK-LU-1, SK-LU1, 72 hours of incubation
Procedure: as §1, §2

PANC-1 cell line = experiment: Cytotoxicity, cell count method; assay type: cell-based; conditions: Homo sapiens, PANC-1, 72 hours of incubation
Procedure: as §1, §2

HUH7 cell line = experiment: Cytotoxicity, cell count method; assay type: cell-based; conditions: Homo sapiens, Huh-7, HUH7, 72 hours of incubation
Procedure: as §1, §2

Plasma stability [1] = assay type: in vitro ADME, CD1 mice; conditions: Mouse plasma
Procedure: (§3) Plasma previously separated from whole blood in EDTA-treated tubes and frozen; blood samples obtained from healthy volunteers, Sprague Dawley rats and CD1 mice, was thawed at room temperature and centrifuged at 1400x RCF 4°C, for 15 minutes. Approximately 90% of the clear supernatant fraction was transferred to a separate tube and was used for the assay.
(§4) Stocks (1 mM and 25 µM) of test compound were prepared in acetonitrile:water (50:50 v/v). Plasma samples were heat inactivated at 54°C. 3 µl of 25 µM test compound were added to 72 µl of heat inactivated plasma. A 50 µL aliquot of the mixture was taken and crashed with 200 µl of acetonitrile containing Telmisartan 100 ng/ml as internal standard and was further processed along with other time points: 10, 30 60 and 120 minutes.
(§5) Final working stock of 1 µM was prepared by diluting 12 µl of 25 µM stock in 288 µl of plasma. The obtained solution (300 µl) of plasma containing the test compound was incubated for […] at 37°C in shaker water bath with gentle shaking. 50 µl aliquot of sample at 10, 30, 60 and 120 min was precipitated immediately with 200 µl of acetonitrile containing internal standard and centrifuged at 4000x RCF, 4°C for 20 minutes. 150 µl of supernatant was diluted with 150 µl of water and analyzed by LC-MS/MS.
(§6) The % remaining of the test substance was calculated as: (Peak Area ratio at time (min))/(Peak Area Ratio at 0 min) ^∗ 100
(§7) The API400 MS and Agilent 1260 Infinity LC were used. Mobile Phase included 10mM Ammonium acetate with 0.1% formic acid in MilliQ water, and Methanol. The column was Phenomenex, KINETIC EVO C18 100A 5u 50^∗4.6 mm, 10 µl injection volume.

hERG channels = biological target: T1, hERG channels (Homo sapiens, UniProt Q12809); experiment: hERG inhibition (whole cell patch clamp, HEK293); assay type: cell-based; conditions: 300nM to 30µM, HEK293 cells
T1 construct: host or cells: HEK293
Procedure: HEK293 cells (Eurofins Discover X, Catalogue number CYL3039) stably expressing hERG channels (human ether-a-go-go-related gene potassium channels were plated onto 12 mm coverslips, 12 to 18 h before performing the assay. Cells with coverslips were placed in recording chamber of molecular devices profiled with extracellular solution. Glass capillary with a tip resistance from […] was back filled with intracellular solution. Giga seal was attained using a sequence of positive and negative pressure.
Whole cell configuration was attained using a gentle suction. Cell capacitance and series resistance compensation was done using software controls provided in multi clamp 700B commander. The cells are maintained at a holding potential of -80mV; hERG currents are activated by cell depolarization to +20mV for 2 seconds followed by a 3 second repolarization to -60mV (frequency: 0.05Hz).
Electrical signals were filtered at 2 KHz and digitized at 5 KHz. Series resistance compensation was typically 60% to 70% such that voltage errors were less than 5 mV. […] Data were acquired using Clampex acquisition software. […]
Amplitude of the tail current upon repolarization to -60mV (pA) and inhibition of the hERG tail current with respect to untreated cells (%) are measured. […]

H9 = experiment: Cytotoxicity, cell viability; conditions: Homo sapiens; H9, 72 hours of incubation, ATP-based method
Procedure: as §1
Cells were seeded at 3 to 5 x 10^4 cells/well density depending on cell lines and maintained at 37°C in 5% CO2. After 24 hours cells were treated with ascending concentrations of the investigational compounds and the reference (5-fluoro-Uracyl) in a range from 0 to 100 µM. […] After 72 h of incubation with compounds, the cells were detached with trypsin and re-suspended in 1 ml of complete medium; the cell number was evaluated using a Z2 Coulter Counter ("cell count method") (Attallah and Johnson, A simple highly sensitive methods for the determination of cell viability using an electronic particle analyzer, Coulter counter J. Immunol. Methods. 1981, 41, 155; Leonardi et al., Activated kinase screening identifies the IKBKE oncogene as a positive regulator of autophagy. Autophagy, 2019, 15, 312). […]

Plasma stability [2] = assay type: in vitro ADME, Sprague Dawley rats; conditions: Rat plasma
Procedure: as §3, §4, §5, §6, §7

T1 sequence (Q12809 whole entry): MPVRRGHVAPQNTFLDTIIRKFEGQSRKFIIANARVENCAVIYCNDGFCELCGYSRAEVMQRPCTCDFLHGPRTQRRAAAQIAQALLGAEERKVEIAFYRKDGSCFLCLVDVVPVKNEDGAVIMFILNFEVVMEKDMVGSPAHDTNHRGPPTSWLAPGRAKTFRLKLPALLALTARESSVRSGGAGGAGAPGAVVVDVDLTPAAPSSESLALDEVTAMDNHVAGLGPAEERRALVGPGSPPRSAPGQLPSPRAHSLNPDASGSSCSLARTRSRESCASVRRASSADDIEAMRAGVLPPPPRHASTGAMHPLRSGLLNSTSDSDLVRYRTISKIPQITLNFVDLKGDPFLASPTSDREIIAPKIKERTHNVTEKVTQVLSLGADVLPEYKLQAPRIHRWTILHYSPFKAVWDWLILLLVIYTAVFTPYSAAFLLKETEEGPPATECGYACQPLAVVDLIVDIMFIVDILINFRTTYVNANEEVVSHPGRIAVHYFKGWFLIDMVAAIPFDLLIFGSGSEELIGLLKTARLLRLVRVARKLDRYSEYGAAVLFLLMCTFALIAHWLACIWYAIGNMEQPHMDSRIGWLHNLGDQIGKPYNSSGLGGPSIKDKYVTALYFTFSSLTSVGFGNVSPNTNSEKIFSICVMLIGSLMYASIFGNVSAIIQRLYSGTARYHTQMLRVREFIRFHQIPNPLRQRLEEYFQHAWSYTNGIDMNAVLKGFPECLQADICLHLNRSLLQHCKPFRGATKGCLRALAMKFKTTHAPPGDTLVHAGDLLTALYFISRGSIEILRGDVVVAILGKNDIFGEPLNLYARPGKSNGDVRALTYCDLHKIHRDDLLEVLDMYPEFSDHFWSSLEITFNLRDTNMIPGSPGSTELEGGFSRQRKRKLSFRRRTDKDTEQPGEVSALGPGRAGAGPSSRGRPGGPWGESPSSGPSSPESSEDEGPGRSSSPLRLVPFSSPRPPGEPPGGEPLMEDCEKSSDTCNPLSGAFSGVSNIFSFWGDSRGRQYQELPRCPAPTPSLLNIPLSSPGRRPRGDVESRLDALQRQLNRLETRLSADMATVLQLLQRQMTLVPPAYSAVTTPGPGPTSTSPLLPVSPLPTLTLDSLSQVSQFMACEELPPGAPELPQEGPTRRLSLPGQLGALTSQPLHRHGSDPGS

Structure (SMILES): CCCCc1cn(-c2ccc(-c3nnc(-c4ccccc4C(F)(F)F)o3)cc2)nn1 [Compound 5]
- IC50 (A549): 350 nM
- IC50 (A549 Red-FLuc): 6.04 µM
- IC50 (CALU1): 370 nM
- IC50 (U87): 3.9 µM
- IC50 (A375 cell line): 940 nM
- IC50 (SK-LU1): 420 nM
- IC50 (PANC-1 cell line): 720 nM
- IC50 (HUH7 cell line): 3.28 µM
- % Remaining ± SD (Plasma stability [1]; 0 minutes): 100.0 ± 1.8%
- % Remaining ± SD (Plasma stability [1]; 10 minutes): 117.2 ± 8.6%
- % Remaining ± SD (Plasma stability [1]; 30 minutes): 111.1 ± 0.3%
- % Remaining ± SD (Plasma stability [1]; 60 minutes): 108.2 ± 4.8%
- % Remaining ± SD (Plasma stability [1]; 120 minutes): 123.2 ± 26.5%
- effect on the conductance of the hERG channel (hERG channels): No effect on the conductance of the hERG channel
- IC50 (H9): 50 µM
- % Remaining ± SD (Plasma stability [2]; 0 minutes): 100.0 ± 1.0%
- % Remaining ± SD (Plasma stability [2]; 10 minutes): 107.1 ± 4.1%
- % Remaining ± SD (Plasma stability [2]; 30 minutes): 103.3 ± 2.3%
- % Remaining ± SD (Plasma stability [2]; 60 minutes): 99.0 ± 6.8%
- % Remaining ± SD (Plasma stability [2]; 120 minutes): 104.8 ± 5.6%
